Source: patent US12109301B2, “Formulations, methods, and systems for treating genitourinary conditions” (Massachusetts Institute of Technology, priority 2017, dated 2024)
Like-named read-outs stand apart in the source and are kept apart here.

Columns and labels:
whole porcine ureters = assay: Bench top ex vivo model, phenylephrine-stimulated contractions, intraluminal delivery; parameters: species or system pig
Experimental: An ex vivo bench top model was designed to permit the testing of whole ureteral segments. Flow through the ureteral segments was regulated, and ranged from 0.25 mL/minute to 60 mL/minute. […] The intraluminal reservoirs contained either preheated saline buffer or dilutions of any candidate therapeutic agent.
The pounds per square inch (PSI) pressure readings were obtained using a fiber-optic pressure catheter.
For this test, a ureter was prepared through intraluminal delivery of saline (Krebs-Henseleit Buffer) (BUF) only (region “i”). The experiment then was initiated and phenylephrine [10 mM] was added to the Krebs infusion to stimulate baseline peristaltic contractions seen in patients with urinary stones (region “ii”). […] [1 μM]
Cumulative ureteral contractions were plotted over the course of the entire experiment, and are depicted at FIG. 8. For this test, a ureter was prepared through intraluminal delivery of saline (BUF) only (region “i”). The experiment was initiated and phenylephrine [10 mM] was added to the Krebs infusion to stimulate baseline peristaltic contractions seen in patients with urinary stones (region “ii”).

[1] = test system: human ureteral smooth muscle cell (hUSMC); assay: High throughput screening (HTS) of hUSMC relaxation (p-MLC vs unphosphorylated MLC, single-cell analysis); assay type: cell-based; conditions: for relaxation of smooth muscle cells within a cell population: 8 hour exposure; for relaxation of smooth muscle (in words): hUSMC, prolonged exposure (8 hours)
Source text: An HTS test was developed to quantify the contractile state of a human ureteral smooth muscle cell (hUSMC). Quantification of hUSMC relaxation was achieved by performing single-cell analysis using a computer vision (CellProfiler, Broad Institute, MA) approach that related each cell's fluorescence intensity to its state of muscle relaxation (comparing phosphorylated myosin with unphosphorylated myosin).
Primary hUMSCs were harvested from patients and cultured. There were about 10,000 cells per well, and 100 μL of media per well. Each well represented one experiment, and 250 nL of drug per well was delivered with DMSO (0.25% DMSO by volume).
In the test of this example, single cell analysis was performed on each cell (identified via computer vision) after exposure to various drugs which enable relaxation in order to correlate each cell's contractile state to the therapeutic compound, exposure time, and dose.
These correlations were determined by analyzing the fluorescent intensity of smooth muscle cells, which is related to the contractile state of the muscles. When a smooth muscle cell is signaled to contract, phosphorylation of myosin light-chain (p-MLC) occurs, which is a biomarker of muscle contraction. Conversely, when smooth muscle is left unphosphorylated (MLC), muscle relaxation occurs. Therefore, smooth muscle contraction can be computed from the proportion of p-MLC to unphosphorylated-MLC.
The tested agents included those in the following table.

hUSMCs [2] = conditions: for Percentages of Cells that Remained Contracted After Treatment: Nifedipine 0 μM
hUSMCs [3] = assay type: cell-based; conditions: human
[4] = Experimental: A commercially available surgical lubricant (SURGILUBE® lubricant) was combined with a surfactant. The surfactant was Polysorbate 20, and 0.6 mL of the Polysorbate 20 was added to 19.4 mL of the surgical lubricant.
However, more surfactant may be added to increase drug concentration, e.g., up to about 500 μM.

[5] = test system: human ureteral smooth muscle cell (hUSMC); assay: Cell viability of hUSMC in the HTS of Example 1
Experimental: Eight-point dosing curves were performed starting at 25 μM. […] The results were collected from three separate screening runs across three unique primary hUSMC lines (derived from three separate patients).
These relaxation percentages were derived after an 8 hour exposure.

C[C@@H](N)[C@H]1CC[C@H](C(=O)Nc2ccncc2)CC1 [Y-27632]
reduction in contractile frequency (whole porcine ureters; 10 μM intraluminally): 3 × | contractile activity of ureter (in words) (whole porcine ureters; 10 μM intraluminally, with 10 mM phenylephrine, listed as Y27632 (ROCK)): rapid relaxation of the ureter | frequency of peristaltic activity (in words) (whole porcine ureters; 10 μM with 10 mM phenylephrine, region iii): significant decrease in frequency | reduction in the slope of linear regression of cumulative contractions (whole porcine ureters; 10 μM, region iii vs other regions of FIG. 8): ≥ 3 × | effect after removal from the infusion (region iv) (whole porcine ureters; phenylephrine 10 mM and saline buffer continued): the effects were reversed | relaxation of smooth muscle cells within a cell population ([1]; 3.13 μM): 20% | hUSMC population relaxed (greatest effect, FIG. 1) ([1]; after an 8 hour exposure): about 40% | relaxation of smooth muscle (in words) ([1]; listed as ROCK Y-27632): significant relaxation of smooth muscle | relaxation of smooth muscle (in words) ([1]; listed as Y-27632 (ROCK)): relatively significant cell relaxation | relaxation (hUSMCs [2]; 25 μM alone, 8 hour exposure): about 45% | Percentages of Cells that Remained Contracted After Treatment (hUSMCs [2]; ROCK 1.56 μM): 81% | Percentages of Cells that Remained Contracted After Treatment (hUSMCs [2]; ROCK 3.13 μM): 71% | Percentages of Cells that Remained Contracted After Treatment (hUSMCs [2]; ROCK 6.25 μM): 67% | Percentages of Cells that Remained Contracted After Treatment (hUSMCs [2]; ROCK 12.50 μM): 59% | Percentages of Cells that Remained Contracted After Treatment (hUSMCs [2]; ROCK 25.00 μM): 54% | Percentages of Cells that Remained Contracted After Treatment (hUSMCs [2]; ROCK 50.00 μM): 50% | Percentages of Cells that Remained Contracted After Treatment (hUSMCs [2]; ROCK […]): 86% | Percentages of Cells that Retained Viability (hUSMCs [3]; 3.13 μM): 110% | Percentages of Cells that Retained Viability (hUSMCs [3]; 25 μM): 100% | Percentages of Cells that Retained Viability (hUSMCs [3]; 50 μM): 95% | actual drug retention in the surgical lubricant/surfactant mixture [4]: about 200 μM

CCCc1nc(C)c2c(=O)[nH]c(-c3cc(S(=O)(=O)N4CCN(CC)CC4)ccc3OCC)nn12 [Vardenafil]
cell population relaxation ([1]; 1.56 μM or greater): ~20%

Cc1ccc(-c2cc(C(F)(F)F)nn2-c2ccc(S(N)(=O)=O)cc2)cc1 [Celecoxib]
relaxation of smooth muscle cells within a cell population ([1]; 12.5 μM): 20% | relaxation of smooth muscle cells within a cell population ([1]; 25 μM): 30% | toxicity to the tested cells (false hit) [5]: toxicity killed the tested cells

CCOc1ccccc1OCCN[C@H](C)Cc1ccc(OC)c(S(N)(=O)=O)c1 [Tamsulosin]
cell population relaxation ([1]; 6.25 μM or greater): ~20% | relaxation of smooth muscle (in words) [1]: demonstrated efficacy at certain doses
